Legend:
[1] = cited from earlier work; for aqueous solubility: at room temperature, known values
Water content by TG-FTIR = details: sample according to Example 1; relative humidity of about 35%
Method: Thermogravimetric measurements were carried out with a Netzsch Thermo-Microbalance TG 209 coupled to a Bruker FTIR Spectrometer Vector 22 (sample pans with a pinhole, N2 atmosphere, heating rate 10 K/min).
This value was determined by TG-FTIR at a relative humidity of about 35%. This sample was examined by dynamic water vapor sorption analysis (DVS) within the relative humidity range from 0 to 95% r.h. DVS measurements were conducted as described above.
(§1) This sample was examined by dynamic water vapor sorption analysis (DVS) within the relative humidity range from 0 to 95% r.h. DVS measurements were conducted as described above.

[2] = Hygroscopicity by dynamic water vapor sorption analysis (DVS)
Method: DVS measurements were conducted as follows: The sample was placed on an aluminum holder on top of a microbalance and allowed to equilibrate at 50% RH before starting the pre-defined humidity program:
(1) two hours kept at 50% constant relative humidity (RH) then
(2) raised RH to 95% at a rate of 5% per hour
(3) maintained RH at 95% for five hours
(4) reduced to 0% RH at a rate of 5% per hour
(5) maintained RH at 0% for five hours
(6) raised RH to 95% at a rate of 5% per hour
(7) maintained RH at 95% for five hours
(8) reduced to 0% RH at a rate of 5% per hour
(9) maintained RH at 0% for five hours
(10) raised to 50% RH at a rate of 5% per hour
(11) maintained RH at 50% for about one hour
as §1

CN1c2c([nH]c(N)nc2=O)NC[C@@H]1CNc1ccc(C(=O)N[C@@H](CCC(=O)O)C(=O)O)cc1
solubility in water (in words) ([1]; water): poorly soluble

CN1c2c([nH]c(N)nc2=O)NC[C@@H]1CNc1ccc(C(=O)N[C@@H](CCC(=O)[O-])C(=O)[O-])cc1.[Ca+2] [calcium salt (Form III)]
aqueous solubility [1]: about 2.5 mg/ml

CN1c2c(nc(N)[nH]c2=O)NC[C@@H]1CNc1ccc(C(=O)N[C@@H](CCC(=O)O)C(=O)O)cc1.OCCN1CCOCC1
water content (TG-FTIR) (Water content by TG-FTIR): about 8.9 % w/w
change of water content ([2]; DVS, range from 20% to 80% relative humidity): about 2%
water adsorption compared with the crystalline polymorphic forms of the calcium salt ([2]; under changing relative humidity): significantly lower

CN1c2c([nH]c(N)nc2=O)NC[C@@H]1CNc1ccc(C(=O)N[C@@H](CCC(=O)[O-])C(=O)[O-])cc1.[Ca+2] [Form I]
aqueous solubility [1]: about 10 mg/ml

Reference: US11633400B2
